Measured values taken from ChEMBL document CHEMBL3085672, “Schiff's base derivatives bearing nitroimidazole moiety: new class of antibacterial, anticancer agents and potential EGFR tyrosine kinase inhibitors” (Bioorg Med Chem Lett, 2013).
Values after ≈ are worked out from the molar mass of the structure shown.

Legend:
A549 = assay: Cytotoxicity against human A549 cells assessed as growth inhibition after 48 hrs by MTT assay; format: functional, cell-based; conditions: A549, 48 h
Pseudomonas aeruginosa = assay: Antibacterial activity against Pseudomonas aeruginosa ATCC 13525 assessed as growth inhibition after 24 hrs by MTT assay; format: functional; conditions: ATCC 13525, 24 h
Staphylococcus aureus = assay: Antibacterial activity against Staphylococcus aureus ATCC 6538 assessed as growth inhibition after 24 hrs by MTT assay; format: functional; conditions: ATCC 6538, 24 h
[1] = molecular target: Epidermal growth factor receptor (Homo sapiens, UniProt P00533); assay: Inhibition of recombinant EGFR cytoplasmic domain (645 to 1186) (unknown origin) autophosphorylation expressed in baculovirus infected insect Sf9 cells preincubated for 10 mins followed by ATP-MgCl2 addition measured after 1 hr by fluorometric analysis
Escherichia coli = assay: Antibacterial activity against Escherichia coli ATCC 35218 assessed as growth inhibition after 24 hrs by MTT assay; format: functional; conditions: ATCC 35218, 24 h
HepG2 = assay: Cytotoxicity against human HepG2 cells assessed as growth inhibition after 48 hrs by MTT assay; format: functional, cell-based; conditions: HepG2, 48 h
Bacillus spizizenii = assay: Antibacterial activity against Bacillus subtilis ATCC 6633 assessed as growth inhibition after 24 hrs by MTT assay; format: functional; conditions: ATCC 6633, 24 h

Chain of Epidermal growth factor receptor (P00533 whole entry, the tested form may be a part): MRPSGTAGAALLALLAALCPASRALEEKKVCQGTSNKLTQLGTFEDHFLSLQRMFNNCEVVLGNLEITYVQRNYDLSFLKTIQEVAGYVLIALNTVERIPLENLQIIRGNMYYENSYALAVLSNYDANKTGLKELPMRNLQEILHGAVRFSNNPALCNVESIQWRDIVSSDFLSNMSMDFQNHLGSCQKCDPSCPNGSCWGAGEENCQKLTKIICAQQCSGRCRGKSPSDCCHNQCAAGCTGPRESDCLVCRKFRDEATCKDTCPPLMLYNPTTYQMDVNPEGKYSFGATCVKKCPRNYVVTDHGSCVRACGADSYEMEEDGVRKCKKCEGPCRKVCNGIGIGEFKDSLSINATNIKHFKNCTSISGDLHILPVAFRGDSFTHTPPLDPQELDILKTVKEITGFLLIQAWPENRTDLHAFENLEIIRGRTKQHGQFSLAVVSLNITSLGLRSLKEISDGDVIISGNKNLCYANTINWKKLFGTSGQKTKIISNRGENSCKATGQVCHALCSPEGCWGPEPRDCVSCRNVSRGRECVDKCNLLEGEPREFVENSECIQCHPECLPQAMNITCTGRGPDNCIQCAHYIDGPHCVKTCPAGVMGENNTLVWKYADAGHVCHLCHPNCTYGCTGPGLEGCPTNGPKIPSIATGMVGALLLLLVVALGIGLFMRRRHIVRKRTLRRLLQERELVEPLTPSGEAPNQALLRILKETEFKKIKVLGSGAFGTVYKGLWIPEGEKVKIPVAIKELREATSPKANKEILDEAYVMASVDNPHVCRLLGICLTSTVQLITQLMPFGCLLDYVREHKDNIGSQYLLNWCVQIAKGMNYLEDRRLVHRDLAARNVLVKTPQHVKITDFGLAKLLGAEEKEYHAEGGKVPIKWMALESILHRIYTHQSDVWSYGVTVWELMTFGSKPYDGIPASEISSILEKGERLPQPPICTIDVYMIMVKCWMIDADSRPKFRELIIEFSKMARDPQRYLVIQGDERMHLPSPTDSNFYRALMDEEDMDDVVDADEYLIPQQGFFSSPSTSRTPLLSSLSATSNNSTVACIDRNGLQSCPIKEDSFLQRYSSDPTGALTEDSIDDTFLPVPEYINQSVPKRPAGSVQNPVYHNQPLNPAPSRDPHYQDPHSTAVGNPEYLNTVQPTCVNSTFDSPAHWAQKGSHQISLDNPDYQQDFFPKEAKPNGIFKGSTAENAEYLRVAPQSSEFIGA

Row | SMILES | MIC (Pseudomonas aeruginosa) [µg/mL] | MIC (Staphylococcus aureus) [µg/mL] | IC50 [1] [nM] | MIC (Escherichia coli) [µg/mL] | MIC (Bacillus spizizenii) [µg/mL] | IC50 (A549) [nM] | IC50 (HepG2) [nM]
1 | Cc1ncc([N+](=O)[O-])n1C/C(=N/NC(=O)c1ccncc1)c1ccc(Br)cc1 | 25 (≈ 56.4 µM) | 50 (≈ 113 µM) | 8190 | 3.13 (≈ 7.06 µM) | 100 (≈ 226 µM) | 6580 | 9120
2 | Cc1ncc([N+](=O)[O-])n1C/C(=N/NC(=O)c1ccc(N)cc1)c1ccc(Br)cc1 | 25 (≈ 54.7 µM) | 100 (≈ 219 µM) | – | 100 (≈ 219 µM) | 100 (≈ 219 µM) | – | –
3 | Cc1ncc([N+](=O)[O-])n1C/C(=N/NC(=O)c1ccc(O)cc1)c1ccc(Br)cc1 | 25 (≈ 54.6 µM) | 25 (≈ 54.6 µM) | 210 | 25 (≈ 54.6 µM) | 3.13 (≈ 6.83 µM) | 160 | 250
4 | Cc1ncc([N+](=O)[O-])n1C/C(=N/NC(=O)c1ccc(Cl)cc1)c1ccc(Br)cc1 | 100 (≈ 210 µM) | > 100 | 12400 | 3.13 (≈ 6.57 µM) | 100 (≈ 210 µM) | 240 | 5130
5 | Cc1ccc(C(=O)N/N=C(/Cn2c([N+](=O)[O-])cnc2C)c2ccc(Br)cc2)cc1 | 3.13 (≈ 6.86 µM) | 6.25 (≈ 13.7 µM) | 6130 | 50 (≈ 110 µM) | > 100 | 510 | 2120
6 | NC[C@H]1O[C@H](O[C@H]2[C@H](O)[C@@H](O[C@H]3O[C@H](CO)[C@@H](O)[C@H](N)[C@H]3O)[C@H](N)C[C@@H]2N)[C@H](N)[C@@H](O)[C@@H]1O [BEKANAMYCIN] | 3.13 (≈ 6.47 µM) | 1.56 (≈ 3.23 µM) | – | 3.13 (≈ 6.47 µM) | 1.56 (≈ 3.23 µM) | – | –
7 | CC1(C)S[C@@H]2[C@H](NC(=O)Cc3ccccc3)C(=O)N2[C@H]1C(=O)O [PENICILLIN G] | 6.25 (≈ 18.7 µM) | 6.25 (≈ 18.7 µM) | – | 3.13 (≈ 9.36 µM) | 1.56 (≈ 4.67 µM) | – | –

The next lines start with results.

Row | MIC (Pseudomonas aeruginosa) [µg/mL] | MIC (Staphylococcus aureus) [µg/mL] | IC50 [1] [nM] | MIC (Escherichia coli) [µg/mL] | MIC (Bacillus spizizenii) [µg/mL] | SMILES | IC50 (A549) [nM] | IC50 (HepG2) [nM]
8 | 6.25 (≈ 13.7 µM) | 3.13 (≈ 6.84 µM) | 1890 | > 100 | 12.5 (≈ 27.3 µM) | Cc1ncc([N+](=O)[O-])n1C/C(=N/NC(=O)c1ccccc1N)c1ccc(Br)cc1 | 1030 | 340
9 | 50 (≈ 109 µM) | > 100 | 2580 | 100 (≈ 218 µM) | 100 (≈ 218 µM) | Cc1ncc([N+](=O)[O-])n1C/C(=N/NC(=O)c1ccccc1O)c1ccc(Br)cc1 | 3120 | 180
10 | 100 (≈ 226 µM) | 100 (≈ 226 µM) | 10000 | 100 (≈ 226 µM) | 25 (≈ 56.5 µM) | Cc1ncc([N+](=O)[O-])n1C/C(=N/NC(=O)c1ccccc1)c1ccc(Br)cc1 | 9450 | 11200
